Laboratory results reported in US20130165455A1, “TLR AGONISTS” (The Regents of The University of California, priority 2005, published 2013).

Test system: C57BL/6 mice
Assay: Serum cytokine levels in C57BL/6 mice after i.v. injection (Luminex)
Type: in vivo
Conditions: 0.1 micromole SM-360320 or equivalent amount UC-1V150/MSA (500 μg MSA per mouse), FIG. 5
Experimental: FIGS. 5A, 5B, 5C, and 5D illustrate the increased potency and duration of effect of UC-1V150/MSA. C57BL/6 mice were injected (i.v.) with (A) 0.1 micromole of SM-360320, a TLR7 ligand, or (B) equivalent amount of a TLR7 agonist UC-1V150 (aldehyde-modified SM-360320) or UC-1V150/MSA to 500 μg MSA per mouse. Serum samples were collected at the indicated time points and cytokine levels were analyzed by Luminex. MSA=mouse serum albumin. The effect from the original TLR7 ligand, SM-360320, lasted for only 2 hours whereas UC-1V150/MSA has extended the effect to at least 6 hours.
FIGS. 7A and 7B illustrates an increased potency of UC-1V150/MSA. C57BL/6 mice were i.v. injected with 380 nmole of SM-360320 or UC-1V150, or 500 μg of UC-1V150/MSA (equivalent to 3.8 nmole UC-1V150) per mouse. Serum samples were collected after 2 h and cytokine levels were analyzed by Luminex. To achieve the similar effect, at least 100-fold higher concentration of either UC-1V150 or SM-360320 was required as compared to that of UC-1V150/MSA.

COCCOc1nc(N)c2[nH]c(=O)n(Cc3ccccc3)c2n1 [SM-360320]
duration of effect (serum cytokine levels): 2 h
